Patent publication US20230391828A1, “REGULATORS OF CELL DIVISION” (TECHNISCHE UNIVERSITÄT DRESDEN, priority 2020, published 2023)
“Also recorded” adds a separate entry of the source. Bridge positions count the residues as written; N and C are the ends. Square brackets hold non-standard residues; d marks the D form. Peptide text beside a SMILES is read from it. R8 = C=CCCCCCC[C@@](C)(N)C(=O)O; S5 = C=CCCC[C@](C)(N)C(=O)O

Key:
APC/C [1] = target: T1, APC/C (Homo sapiens, UniProt Q9NYG5); experiment: In vitro APC/C ubiquitination assay driven by the E2 enzyme UBE2C, fluorophore-labelled securin substrate; assay type: biochemical
T1 construct: made in house; host or cells: SF9 insect cells (baculovirus)
Method: (§1) Proteins were separated by SDS-PAGE electrophoresis using precast Bolt 4-12% Bis-Tris Plus protein gels (Thermo Fisher Scientific) and Criterion XT Bis-Tris Midi Protein Gels (Bio-Rad). In different experiments, various conditions were used: in vitro APC/C ubiquitination assays—165 V, 40 min, SDS-MES running buffer (50 mM MES, 50 mM Tris base, 0.1% SDS, 1 mM EDTA, pH 7.3; Thermo Fisher Scientific); in vitro APC/C ubiquitination assays determining KM—165V, 1 h, SDS-MOPS running buffer (50 mM MOPS, 50 mM Tris base, 0.1% SDS, 1 mM EDTA, pH 7.7; Thermo Fisher Scientific); pull-down binding assay—165 V, 35 min, SDS-MES running buffer.
APC/C-dependent ubiquitination reactions were performed at 30° C. in 30 mM HEPES pH 7.4, 175 mM NaCl, 8 mM MgCl2, 0.05% Tween-20, 1 mM DTT and 5% glycerol and contained 20 nM recombinant APC/C (note, for testing the first generation of inhibitors, APC/C and Cdc20 immunoprecipitated from mitotic HeLa K cells was used), 340 nM Cdc20, 46 nM GST-UBA1, 340 nM UBE2C (alternatively 400 nM UBE2D1, 280 nM UBE2S), 21 μM His6-ubiquitin or if it is indicated 21 μM methylated-ubiquitin (BostonBiochem), 2.6 mM ATP, 10 mM phosphocreatine and 11 μM creatine kinase. As substrates, 35 nM fluorophore-labeled ubiquitin-cyclin B and 50 nM fluorophore-labeled securin were standardly used (fluorophore IRDye 800CW (LI-COR) was used for labelling). In case of KM and kcat determination, 50, 100, 250, 500, 750, 1000, 1250, 2500 and 5000 nM fluorophore-labelled securin was used. The reaction was done in the volume of 15 μl, it was quenched after the indicated time with LDS sample buffer (Thermo Fisher Scientific) supplemented with 100 mM DTT and subjected to SDS-PAGE. Detection of fluorescently labelled substrates was done by quantitative near-infrared scanning system Odyssey.

APC/C [2] = target: T1, APC/C; experiment: In vitro APC/C ubiquitination assay with different E2 enzymes (UBE2C, UBE2D, UBE2S), Ub-cyclin B1 substrate; assay type: biochemical; settings: 100 μM, reaction time 40 min
Method: as §1
APC/C-dependent ubiquitination reactions were performed at 30° C. in 30 mM HEPES pH 7.4, 175 mM NaCl, 8 mM MgCl2, 0.05% Tween-20, 1 mM DTT and 5% glycerol and contained 20 nM recombinant APC/C (note, for testing the first generation of inhibitors, APC/C and Cdc20 immunoprecipitated from mitotic HeLa K cells was used), 340 nM Cdc20, 46 nM GST-UBA1, 340 nM UBE2C (alternatively 400 nM UBE2D1, 280 nM UBE2S), 21 μM His6-ubiquitin or if it is indicated 21 μM methylated-ubiquitin (BostonBiochem), 2.6 mM ATP, 10 mM phosphocreatine and 11 μM creatine kinase. […] Detection of fluorescently labelled substrates was done by quantitative near-infrared scanning system Odyssey.

APC/C (APC11) = target: T2, APC/C (APC11) (Homo sapiens, UniProt Q9NYG5); experiment: Pull-down binding assay in HeLa K cell extract, APC/C; settings: Pra peptide clicked to azide agarose or magnetic beads, Western blot
T2 construct: endogenous in cells; host or cells: HeLa K cell extract
Method: For the protein transfer, the 0.45 μm Immobilon-FL PVDF membrane (Merck Millipore) was used. The membrane was activated in ethanol and then transferred to the Blotting buffer (50 mM SDS-MOPS, 50 mM Tris base, 0.1% SDS, 1 mM EDTA, 20% EtOH). The proteins were transferred using a wet transfer for 1.5 h at 400 mA. Subsequently, the membrane was incubated with the blocking solution, 10% milk in PBS-T (0.02% Tween-20 in PBS), for 1 h at room temperature. To detect proteins of the interest, the membrane was incubated with primary antibodies overnight at 4° C. Followed by washing the membrane 3 times 10 min with PBS-T and incubation with IRDye fluorescently labelled secondary antibodies for 1 h. Prior detection, the membrane was twice washed with PBS-T for 10 min and once with PBS for 10 min. The detection was done using the quantitative near-infrared scanning system Odyssey (LI-COR Biosciences).
HeLa K cell pellet was re-suspended in the extraction buffer (30 mM HEPES pH 7.5, 175 mM NaCl, 2.5 mM MgCl2, 0.25% NP40, 10% glycerol, 1 mM DTT) supplemented with 10 μM MG132 (VWR), 1 mM PMSF (Sigma-Aldrich), complete protease inhibitor cocktail (Roche) and PhosSTOP phosphatase inhibitors (Roche) and incubated for 20 min on ice, followed by centrifugation of cell debris for 15 min at 4° C. 16 100 g. In mean time, inhibitor molecules containing Propargyl (Pra) chemical group were covalently attached to the azide agarose or azide magnetic resin (Jena Bioscience) by Cu(I)-catalysed azide-alkyne cycloaddition reaction. Specifically, the inhibitor molecules were mixed with azide agarose resin in ratio 0.125 μmol inhibitor/25 μl agarose resin and azide magnetic resin in ratio 0.018 μmol inhibitor/20 μl magnetic resin. The reaction was catalysed by 1 mM CuSO4, 0.1 mM TBTA (Sigma-Aldrich) and 1 mM Sodium ascorbate and was performed on the rotating wheel for 30 min at room temperature in the volume of 1 ml. Subsequently, the resin was washed 5 times with the extraction buffer. The inhibitor-agarose resin was added to 1 mg of HeLa K cell extract and the inhibitor-magnetic resin was added to 0.5 mg of HeLa K cell extract followed by incubation at 4° C. for 2 h. Followed by washing the resin 5 times with the extraction buffer. Pull-down proteins were eluted by boiling for 15 min with 1×LDS sample buffer supplemented with 100 mM DTT (agarose resin) or by incubation with 1×LDS sample buffer for 10 min at room temperature followed by taking supernatant that was supplemented with 100 mM DTT and boiling it for 10 min. Samples were subjected to SDS PAGE and Western blot analysis.
HeLa K cell pellet was re-suspended in the extraction buffer (30 mM HEPES pH 7.5, 175 mM NaCl, 2.5 mM MgCl2, 0.25% NP40, 10% glycerol, 1 mM DTT supplied with complete protease inhibitor cocktail (Roche), PhosSTOP phosphatase inhibitors (Roche), 1 mM PMSF, 10 μM MG132) and incubated for 20 min on ice, followed by centrifugation to clear the lysate for 15 min at 4° C. 16,100 g. In the meantime, inhibitor molecules containing the propargyl-Gly-OH (Pra) chemical group were covalently attached to the azide agarose resin (Jena Bioscience) by Cu(I)-catalysed azide-alkyne cycloaddition reaction. Specifically, the inhibitor molecules were mixed with azide agarose resin in ratio 0.125 μmol inhibitor/20 μl agarose resin. The reaction was catalysed by 0.1 mM CuSO4, 0.5 mM THPTA (Sigma-Aldrich) and 5 mM Sodium ascorbate and was performed on the rotating wheel for 30 min at room temperature in the volume of 1 ml. […]

APC/C [3] = experiment: Ubiquitinated securin (Mean ± SD); settings: 100 µM
Text: Table printed on a drawing sheet, Figure 6
Head of the field: Ubiquitinated securin (Mean ± SD)

HeLa K cells = experiment: Live cell imaging of HeLa K cells; assay type: cell-based, human; settings: 50 μM
Method: Automated time-lapse microscopy was performed using ImageXpress Micro XLS wide-field screening microscope (Molecular Devices) equipped with a 10×, 0.5 NA., 20×, 0.7 NA, and 40×, 0.95 NA Plan Apo air objectives (Nikon), a laser-based autofocus and a full environmental control (5% CO2, 37° C.). Cells were grown in 96-well plastic bottom plates (clear, Greiner Bio-One) and for live cell imaging media was changed to DMEM without phenol red and riboflavin (Thermo Fisher Scientific), supplemented with 10% (v/v) FBS, 1% (v/v) Glutamax, 1% (v/v) penicillin-streptomycin, and 0.5 μg/ml amphotericin B.
HeLa K cells were seeded into 96-well plates (4000-4500 cells) one day prior the treatment with compounds of the invention. Cells were treated with 50 μM of compound G3_mod1_mini PEG and cell division was monitored by live cell imaging using ImageXpress Micro XLS wide-field screening microscope, images were acquired every 3 min for time courses of 48 h. The length of mitosis was determined manually.
(§2) Automated time-lapse microscopy was performed using ImageXpress Micro XLS wide-field screening microscope (Molecular Devices) equipped with a 10×, 0.5 NA., 20×, 0.7 NA, and 40×, 0.95 NA Plan Apo air objectives (Nikon), a laser-based autofocus and a full environmental control (5% CO2, 37° C.). Cells were grown in 96-well plastic bottom plates (clear, Greiner Bio-One) and for live cell imaging media was changed to imaging media. Imaging media for A549, HeLa K and SW480 was DMEM without phenol red and riboflavin (Thermo Fisher Scientific), supplemented with 10% (v/v) FBS, 1% (v/v) Glutamax, and 1% (v/v) penicillin-streptomycin; imaging media for HT-1080 and RKO was RPMI 1640 without phenol red (Thermo Fisher Scientific), supplemented with 10% (v/v) FBS, and 1% (v/v) penicillin-streptomycin.
(§3) A549 (5000-5500 cells), HeLa K (3000-4000 cells), HT-1080 (4000 cells), RKO (5000 cells), and SW480 (7000-8000 cells) cells were seeded into 96-well plates one day prior to treatment with compounds of the invention. Cells were treated with 50 μM of compound G3_mod1_mini PEG and cell division was monitored by live cell imaging using an ImageXpress Micro XLS wide-field screening microscope and images were acquired every 3 min for time courses of 24 h. The length of mitosis was determined manually.

A549 cells = experiment: Live cell imaging of A549 cells; assay type: cell-based, human; settings: A549, 50 μM, imaged 24 h
Method: as §2, §3

HT-1080 cells = experiment: Live cell imaging of HT-1080 cells; assay type: cell-based, human; settings: HT-1080, 50 μM, imaged 24 h
Method: as §2, §3

RKO cells = experiment: Live cell imaging of RKO cells; assay type: cell-based, human; settings: 50 μM, imaged 24 h
Method: as §2, §3

SW480 cells = experiment: Live cell imaging of SW480 cells; assay type: cell-based, human; settings: SW480, 50 μM, imaged 24 h
Method: as §2, §3

Compound	difference between KM without and with inhibitor (APC/C [1]; 3 μM G3-6, securin titration, unpaired t test p=0.0886)	inhibition of APC/C activity in vitro compared with TAME (APC/C [1]; 100 μM, UBE2C, reaction time 45 min, 3 independent assays)	inhibition of APC/C activity in vitro, titration (APC/C [1]; 25, 50, 75 and 100 μM, UBE2C, reaction time 45 min)	IC50 (APC/C [1]; UBE2C, 0.01-100 μM, reaction time 10 min, methylated ubiquitin, ubiquitinated securin, 4 independent experiments) [µM]	Ki (APC/C [1]; model for non-competitive inhibition in Prism 6.0, 3 μM inhibitor, securin 50-5000 nM, reaction time 2 min, read-out: inhibitory constant (Ki)) [µM]	mechanism of action (type of the inhibition) (APC/C [1]; titration of substrate (securin))	IC50 (in words) (APC/C [1]; titration of the G3-6 molecule)	inhibition of APC/C activity driven by different E2 enzymes (APC/C [2])	binding to the APC/C (pull-down) (APC/C (APC11))	Ubiquitinated securin (Mean ± SD) (APC/C [3]) [%]	cell fate (cell death) (HeLa K cells; imaged 24 h)	effect on mitosis (length of mitosis) (HeLa K cells; imaged 24 h)	cell fate (cell death) (HeLa K cells; imaged 48 h)	effect on mitosis (length of mitosis) (HeLa K cells; imaged 48 h)	effect on mitosis (length of mitosis) (A549 cells)	cell fate (cell death) (HT-1080 cells)	effect on mitosis (length of mitosis) (HT-1080 cells)	effect on mitosis (length of mitosis) (RKO cells)	cell fate (cell death) (SW480 cells)	effect on mitosis (length of mitosis) (SW480 cells)
CC[C@H](C)[C@@H]1NC(=O)[C@H](CCC(=O)O)NC(=O)[C@H](CCCCN)NC(=O)[C@H]([C@@H](C)CC)NC(=O)[C@](C)(NC(=O)[C@H](Cc2c[nH]c3ccccc23)NC(=O)[C@H](Cc2c[nH]c3ccccc23)NC(=O)[C@H](CCC(=O)O)NC(C)=O)CCCCCCC=CCCC[C@@](C)(C(=O)N[C@@H](CCCNC(=N)N)C(=O)N[C@@H](CCCNC(=N)N)C(=O)N[C@@H](C)C(N)=O)NC(=O)[C@H](CCCNC(=N)N)NC(=O)[C@H](CCC(N)=O)NC1=O [G3-6, Ac-cyclo(4,11)-EWWZIKEIQRXRRA-NH2] (Ac-EWW[R8]IKEIQR[S5]RRA-NH2; staple 4-11)	not significant	inhibit APC/C in vitro more efficiently than TAME	inhibits APC/C in vitro the most potently	1.96	5	non-competitive inhibitor	low micromolar range	inhibits APC/C in vitro independently on employed E2 enzymes	binds specifically to the APC/C	3.6 ± 5	–	–	–	–	–	–	–	–	–	–
Ac-GFWFG-NH(CH2)2OCH2CO-cyclo(4,11)-EWWZIKEIQRXRRA-NH2 ({Ac-Gly-Phe-Trp-Phe-Gly-miniPEG}-EWW[R8]IKEIQR[S5]RRA-NH2; staple 4-11) [G3-6_mod1_miniPEG]	–	–	–	–	–	–	–	–	–	–	cause cell death after a metaphase arrest in a subpopulation	prolongs mitosis	causes cell death after metaphase	prolongs mitosis by arresting cells in metaphase; also recorded: induces a metaphase delay	prolongs mitosis	cause cell death after a metaphase arrest in a subpopulation	prolongs mitosis	prolongs mitosis	cause cell death after a metaphase arrest in a subpopulation	prolongs mitosis
